Measured values from paper PMC10913484, “Hydroxyhexylitaconic acids as potent IMP-type metallo-β-lactamase inhibitors for controlling carbapenem resistance in Enterobacterales” (Microbiology Spectrum, 2024).
Converted amounts (≈) assume the structure as drawn. Like-named read-outs stand apart in the source and are kept apart here.

How the values were obtained:
[1] = tested on: K. pneumoniae MS5674 (NDM-1/VIM-1); assay: Susceptibility test, clinical isolate; format: cell-based; details: Klebsiella pneumoniae
Method: (§1) Susceptibility testing, based on the microdilution method, was performed according to the guidelines of the Clinical and Laboratory Standards Institute ([36]).

[2] = tested on: K. pneumoniae AR0076 (VIM-1); assay: Susceptibility test, clinical isolate; format: cell-based; details: Klebsiella pneumoniae
Method: as §1

[3] = tested on: K. pneumoniae NUBL-23 (IMP-6); assay: Susceptibility test, clinical isolate; format: cell-based; details: Klebsiella pneumoniae
Method: as §1

[4] = tested on: K. oxytoca NUBL-827 (IMP-1); assay: Susceptibility test, clinical isolate; format: cell-based; details: Klebsiella oxytoca
Method: as §1

[5] = tested on: E. coli 426 (IMP-1); assay: Susceptibility test, clinical isolate; format: cell-based; details: Escherichia coli
Method: as §1

[6] = tested on: K. pneumoniae AR0034 (IMP-4); assay: Susceptibility test, clinical isolate; format: cell-based; details: Klebsiella pneumoniae, K. pneumoniae AR0034 (IMP-4)
Method: as §1

[7] = tested on: K. pneumoniae NUBL-8 (IMP-1); assay: Susceptibility test, clinical isolate; format: cell-based; details: Klebsiella pneumoniae
Method: as §1

[8] = tested on: E. coli 465 (IMP-1); assay: Susceptibility test, clinical isolate; format: cell-based; details: Escherichia coli
Method: as §1

[9] = tested on: E. cloacae NUBL-5 (IMP-1); assay: Susceptibility test, clinical isolate; format: cell-based; details: Enterobacter cloacae
Method: as §1

[10] = tested on: P. penneri E11-M475 (IMP-1); assay: Susceptibility test, clinical isolate; format: cell-based; details: Proteus penneri
Method: as §1

[11] = tested on: E. coli NUBL-22 (IMP-6); assay: Susceptibility test, clinical isolate; format: cell-based; details: Escherichia coli
Method: as §1

[12] = tested on: E. coli NUBL-24 (IMP-1); assay: Susceptibility test, clinical isolate; format: cell-based; details: Escherichia coli
Method: as §1

[13] = tested on: E. coli DH5α pBC-IMP-1; assay: Susceptibility test (microdilution), transformant; format: cell-based; details: Escherichia coli, read-out: MPM MIC, +agent 100 μg/mL
Method: as §1

[14] = tested on: E. coli DH5α pBC-NDM-1; assay: Susceptibility test (microdilution), transformant; format: cell-based; details: for MPM MIC: E. coli DH5α pBC-NDM-1
Method: as §1

[15] = target: T1, IMP-6 (Serratia marcescens, UniProt P52699, S214G); assay: In vitro inhibition assay (IPM hydrolysis); format: biochemical
T1 construct: made in house
Method: (§2) MBLs were incubated with HHIAs in 20 mM HEPES buffer (pH 7.5) containing 200 mM NaCl and 50 µg/mL BSA at 30°C for 5 min. IPM was added at a concentration of 100 µM, and the rate of IPM hydrolysis was monitored at 297 nm. The initial velocity (v0) rates were plotted against HHIA’s logarithmic concentrations, and the data were fitted to a four-parameter variable slope to obtain the half-maximal inhibitor concentration (IC50) values using GraphPad Prism 9 software (GraphPad Software). The inhibition constant (Ki) was determined as follows: v0 was measured after varying the concentrations of IPM and HHIAs, and inverse v0 (1/v0) was plotted against the inverse IPM concentration [1/(IPM)]. Lineweaver–Burk plots were created to obtain Ki values under the competitive inhibition model using the SigmaPlot 14 suite (Hulinks).

[16] = tested on: SMB-1; assay: In vitro inhibition assay (IPM hydrolysis); format: biochemical; details: even at high doses (100 µM)
Method: as §2

[17] = target: T2, VIM-2 (Escherichia coli, UniProt Q5U7L7); assay: In vitro inhibition assay (IPM hydrolysis); format: biochemical
T2 construct: made in house
Method: as §2

[18] = target: T3, IMP-1 (Serratia marcescens, UniProt P52699); assay: In vitro inhibition assay (IPM hydrolysis); format: biochemical
T3 construct: made in house
Method: as §2

[19] = target: T4, NDM-1 (Klebsiella pneumoniae, UniProt C7C422); assay: In vitro inhibition assay (IPM hydrolysis); format: biochemical; details: even at high doses (100 µM)
T4 construct: made in house
Method: as §2

[20] = +HHIA 6.25 µg/mL, read-out: IPM MIC
[21] = +HHIA 6.25 μg/mL, read-out: MPM MIC
[22] = +HHIA 25 µg/mL, read-out: IPM MIC
[23] = +HHIA 25 μg/mL, read-out: MPM MIC
[24] = +HHIA 100 µg/mL, read-out: IPM MIC
[25] = +HHIA 100 μg/mL, read-out: MPM MIC

T3 sequence (P52699 19-246, looked up, species assumed): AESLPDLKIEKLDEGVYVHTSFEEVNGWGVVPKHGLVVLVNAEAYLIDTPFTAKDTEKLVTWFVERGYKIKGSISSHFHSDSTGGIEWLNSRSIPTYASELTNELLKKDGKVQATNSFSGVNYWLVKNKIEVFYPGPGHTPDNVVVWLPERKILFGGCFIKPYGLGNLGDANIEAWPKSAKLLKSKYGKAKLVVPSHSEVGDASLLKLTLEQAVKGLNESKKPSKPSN
T1 sequence (P52699 19-246 S214G): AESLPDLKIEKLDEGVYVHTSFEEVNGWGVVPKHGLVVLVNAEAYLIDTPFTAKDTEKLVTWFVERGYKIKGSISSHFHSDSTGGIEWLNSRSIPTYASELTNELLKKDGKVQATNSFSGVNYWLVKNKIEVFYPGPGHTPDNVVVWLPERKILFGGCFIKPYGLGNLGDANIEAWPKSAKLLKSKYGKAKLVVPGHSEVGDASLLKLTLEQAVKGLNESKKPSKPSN
T4 sequence (C7C422 29-270 limits assumed): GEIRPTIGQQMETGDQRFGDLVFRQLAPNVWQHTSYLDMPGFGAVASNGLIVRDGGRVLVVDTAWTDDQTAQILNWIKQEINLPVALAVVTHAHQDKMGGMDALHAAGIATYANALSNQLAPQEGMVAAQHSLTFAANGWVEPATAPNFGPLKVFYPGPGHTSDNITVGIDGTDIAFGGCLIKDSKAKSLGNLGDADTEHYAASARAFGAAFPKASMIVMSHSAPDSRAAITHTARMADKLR

With `C=C(C(=O)O)C(CCCCC(C)O)C(=O)O` (centres unmarked) [9-HHIA, 9-hydroxyhexylitaconic acid] the MIC [1, 20] was 64 µg/mL (≈ 278 µM), the MIC [1, 21] was > 64 µg/mL and the MIC [1, 22] was 32 µg/mL (≈ 139 µM). The MIC [1, 23] was > 64 µg/mL, the MIC [1, 24] was 32 µg/mL (≈ 139 µM) and the MIC [1, 25] was 64 µg/mL (≈ 278 µM). The MIC [2, 20] was 32 µg/mL (≈ 139 µM), the MIC [2, 21] was 32 µg/mL (≈ 139 µM) and the MIC [2, 22] was 32 µg/mL (≈ 139 µM). For the same compound, the MIC [2, 23] was 32 µg/mL (≈ 139 µM), the MIC [2, 24] was 32 µg/mL (≈ 139 µM) and the MIC [2, 25] was 32 µg/mL (≈ 139 µM). For the same compound, the MIC [3, 20] was 0.5 µg/mL (≈ 2.17 µM), the MIC [3, 21] was 32 µg/mL (≈ 139 µM) and the MIC [3, 22] was 0.5 µg/mL (≈ 2.17 µM). It also gave an MIC [3, 23] of 16 µg/mL (≈ 69.5 µM), an MIC [3, 24] of 0.5 µg/mL (≈ 2.17 µM) and an MIC [3, 25] of 0.5 µg/mL (≈ 2.17 µM). The MIC [4, 20] was 8 µg/mL (≈ 34.7 µM), the MIC [4, 21] was 32 µg/mL (≈ 139 µM) and the MIC [4, 22] was 4 µg/mL (≈ 17.4 µM). It also gave an MIC [4, 23] of 16 µg/mL (≈ 69.5 µM), an MIC [4, 24] of 2 µg/mL (≈ 8.69 µM) and an MIC [4, 25] of 4 µg/mL (≈ 17.4 µM). It also gave an MIC [5, 20] of 8 µg/mL (≈ 34.7 µM), an MIC [5, 21] of 8 µg/mL (≈ 34.7 µM) and an MIC [5, 22] of 4 µg/mL (≈ 17.4 µM). The MIC [5, 23] was 4 µg/mL (≈ 17.4 µM), the MIC [5, 24] was 2 µg/mL (≈ 8.69 µM) and the MIC [5, 25] was 0.25 µg/mL (≈ 1.09 µM). It also gave an MIC [6, 20] of 4 µg/mL (≈ 17.4 µM), an MIC [6, 21] of 8 µg/mL (≈ 34.7 µM) and an MIC [6, 22] of 2 µg/mL (≈ 8.69 µM). The MIC [6, 23] was 2 µg/mL (≈ 8.69 µM), the MIC [6, 24] was 0.5 µg/mL (≈ 2.17 µM) and the MIC [6, 25] was 0.25 µg/mL (≈ 1.09 µM). It also gave an MIC [7, 20] of 2 µg/mL (≈ 8.69 µM), an MIC [7, 21] of 16 µg/mL (≈ 69.5 µM) and an MIC [7, 22] of 4 µg/mL (≈ 17.4 µM). It also gave an MIC [7, 23] of 4 µg/mL (≈ 17.4 µM), an MIC [7, 24] of 1 µg/mL (≈ 4.34 µM) and an MIC [7, 25] of 0.5 µg/mL (≈ 2.17 µM). It also gave an MIC [8, 20] of 16 µg/mL (≈ 69.5 µM), an MIC [8, 21] of 32 µg/mL (≈ 139 µM) and an MIC [8, 22] of 8 µg/mL (≈ 34.7 µM). The MIC [8, 23] was 8 µg/mL (≈ 34.7 µM), the MIC [8, 24] was 2 µg/mL (≈ 8.69 µM) and the MIC [8, 25] was 0.5 µg/mL (≈ 2.17 µM). The MIC [9, 20] was 8 µg/mL (≈ 34.7 µM), the MIC [9, 21] was 16 µg/mL (≈ 69.5 µM) and the MIC [9, 22] was 4 µg/mL (≈ 17.4 µM). For the same compound, the MIC [9, 23] was 16 µg/mL (≈ 69.5 µM), the MIC [9, 24] was 2 µg/mL (≈ 8.69 µM) and the MIC [9, 25] was 8 µg/mL (≈ 34.7 µM). The MIC [10, 20] was > 64 µg/mL, the MIC [10, 21] was > 64 µg/mL and the MIC [10, 22] was > 64 µg/mL. For the same compound, the MIC [10, 23] was > 64 µg/mL, the MIC [10, 24] was > 64 µg/mL and the MIC [10, 25] was 32 µg/mL (≈ 139 µM). It also gave an MIC [11, 20] of 2 µg/mL (≈ 8.69 µM), an MIC [11, 21] of 16 µg/mL (≈ 69.5 µM) and an MIC [11, 22] of 1 µg/mL (≈ 4.34 µM). The MIC [11, 23] was 16 µg/mL (≈ 69.5 µM), the MIC [11, 24] was 0.5 µg/mL (≈ 2.17 µM) and the MIC [11, 25] was 4 µg/mL (≈ 17.4 µM). For the same compound, the MIC ([12]; +HHIA 6.25 µg/mL, E. coli NUBL-24 (IMP-1), read-out: IPM MIC) was 4 µg/mL (≈ 17.4 µM), the MIC ([12]; +HHIA 6.25 μg/mL, E. coli NUBL-24 (IMP-1), read-out: MPM MIC) was 4 µg/mL (≈ 17.4 µM) and the MIC ([12]; +HHIA 25 µg/mL, E. coli NUBL-24 (IMP-1), read-out: IPM MIC) was 2 µg/mL (≈ 8.69 µM). For the same compound, the MIC ([12]; +HHIA 25 μg/mL, E. coli NUBL-24 (IMP-1), read-out: MPM MIC) was 0.5 µg/mL (≈ 2.17 µM), the MIC ([12]; +HHIA 100 µg/mL, E. coli NUBL-24 (IMP-1), read-out: IPM MIC) was 1 µg/mL (≈ 4.34 µM) and the MIC ([12]; read-out: MPM MIC) was 0.125 µg/mL (≈ 0.543 µM). For the same compound, the MIC [13] was 0.125 µg/mL (≈ 0.543 µM), the “MPM MIC” value ([14]; +agent 25 μg/mL) was 64 µg/mL and the “MPM MIC” value ([14]; +agent 100 μg/mL) was 64 µg/mL. The MIC ([14]; Escherichia coli, read-out: MPM MIC) was 64 µg/mL (≈ 278 µM), the Ki [15] was 27.8 µM and the “Inhibition of hydrolyzing activity of SMB-1” value [16] was “did not inhibit”. The “Inhibitory activity against VIM-2” value [17] was “moderate”, the IC50 [18] was 50.5 µM and the Ki [18] was 11.1 µM. For the same compound, the “Inhibition mode for IMP-1” value ([18]; Lineweaver–Burk plots) was “competitive inhibitors” and the “Inhibition of hydrolyzing activity of NDM-1” value [19] was “did not inhibit”.
